Measurements published in US10279082B2, “Implant with an bioactive coating and method for providing the same” (Biomet Deutschland GmbH, priority 2015, dated 2019).

Experiments:
[1] = Wiping test for adherence of the coating (glass substrate, polyester cloth); type: physicochemical; conditions: fosfomycin-Ca about 430 μg/cm^2, rifampicin about 60 μg/cm^2, wiped with polyester cloth
Source text: A substrate, here a glass substrate, was coated at first with a fosfomycin-Ca monohydrate suspension. Subsequently, a part of the glass substrate coated with fosfomycin-Ca was partially coated with rifampicin.
The completely coated substrate was then wiped using a polyester cloth.

[2] = tested on: intracellular staphylococci; conditions: local administration of a pharmaceutical composition comprising rifampin; cited from earlier work

Row | adherence of coating after wiping [1] | SMILES | elimination of intracellular staphylococci [2]
1 | largely removed | C[C@@H]1O[C@@H]1P(=O)([O-])[O-].O.[Ca+2] [fosfomycin-Ca, fosfomycin-calcium-monohydrate] | –
2 | – | CO[C@H]1/C=C/O[C@@]2(C)Oc3c(C)c(O)c4c(O)c(c(/C=N/N5CCN(C)CC5)c(O)c4c3C2=O)NC(=O)/C(C)=C\C=C\[C@H](C)[C@H](O)[C@@H](C)[C@@H](O)[C@@H](C)[C@H](OC(C)=O)[C@@H]1C [rifampin] | reduced within three days
